In ChEMBL document CHEMBL4414659, “Chemical Constituents from the Aerial Parts of Agastache rugosa and Their Inhibitory Activities on Prostaglandin E2 Production in Lipopolysaccharide-Treated RAW 264.7 Macrophages” (J Nat Prod, 2019):

These compounds were tested on RAW264.7 (assay: Antiinflammatory activity against LPS-stimulated mouse RAW264.7 cells assessed as decrease in PGE2 production preincubated for 1 hr followed by LPS stimulation and measured after 24 hrs by ELISA).
Format: functional, cell-based

First: COc1ccc(-c2cc(=O)c3c(O)cc(O[C@@H]4O[C@H](CO)[C@@H](O)[C@H](O)[C@H]4O)cc3o2)cc1O
Second: O=c1cc(-c2ccc(O)c(O)c2)oc2cc(O[C@@H]3O[C@H](CO)[C@@H](O)[C@H](O)[C@H]3O)cc(O)c12 [GALUTEOLIN]
The IC50 of the first is higher: > 50 µM for the first, 6.1 µM for the second. The second is the more potent here.

Compared with `COc1ccc(-c2cc(=O)c3c(O)cc(O[C@@H]4O[C@H](CO)[C@@H](O)[C@H](O)[C@H]4O)cc3o2)cc1` [TILIANINE], `O=c1cc(-c2ccc(O)cc2)oc2cc(O[C@@H]3O[C@H](CO)[C@@H](O)[C@H](O)[C@H]3O)cc(O)c12` [APIGETRIN] is higher in IC50: 7.4 µM for the first, > 50 µM for the second. The first is the more potent here.

Going from `COc1cc(/C=C/C(=O)OC[C@H]2O[C@@H](OCC/C=C\C[C@H]3C(=O)CC[C@@H]3CC(=O)O)[C@H](O)[C@@H](O)[C@@H]2O)ccc1O` to `COc1cc(/C=C/C(=O)OC[C@H]2O[C@@H](Oc3ccccc3C(=O)O)[C@H](O)[C@@H](O)[C@@H]2O)ccc1O`, the IC50 falls from > 50 µM to 33.9 µM.

`C=CCc1ccc(O)c(O[C@@H]2O[C@H](CO)[C@@H](O)[C@H](O)[C@H]2O)c1` and `C=CCc1ccc(O[C@@H]2O[C@H](CO)[C@@H](O)[C@H](O)[C@H]2O)c(O)c1` are within 1.5-fold of each other in IC50: 4.1 µM for the first, 3.2 µM for the second.

`COc1ccc(-c2cc(=O)c3c(O)cc(O[C@@H]4O[C@H](COC(=O)CC(=O)O)[C@@H](O)[C@H](O)[C@H]4O)cc3o2)cc1` and `COc1ccc(-c2cc(=O)c3c(O)cc(O[C@@H]4O[C@H](COC(=O)CC(=O)O)[C@@H](O)[C@H](OC(C)=O)[C@H]4O)cc3o2)cc1` are within 1.5-fold of each other in IC50: 18.7 µM for the first, 16.8 µM for the second.

Compared with `COC(=O)[C@@H](Cc1ccc(O)c(O)c1)OC(=O)/C=C/c1ccc(O)c(O)c1` [METHYL ROSMARINATE], `CCOC(=O)[C@@H](Cc1ccc(O)c(O)c1)OC(=O)/C=C/c1ccc(O)c(O)c1` [ETHYL ROSMARINATE] is 2.6-fold lower in IC50: 11.3 µM for the first, 4.3 µM for the second.

Going from `COc1ccc(C(=O)O)cc1` [p-ANISIC ACID] to `COc1ccc(-c2cc(=O)c3c(O)cc(O)cc3o2)cc1` [ACACETIN], the IC50 falls from > 50 µM to 6.2 µM. The second is the more potent here.

Going from `CS(=O)(=O)Nc1ccc([N+](=O)[O-])cc1OC1CCCCC1` [NS-398] to `COC(=O)/C=C/c1ccc(O)c(O)c1` [METHYLCAFFEATE], the IC50 rises from 0.0067 µM to 3.9 µM (580-fold). The first is the more potent here.

First: COc1ccc(-c2cc(=O)c3c(O)cc(O[C@@H]4O[C@H](CO)[C@@H](O)[C@H](OC(C)=O)[C@H]4O)cc3o2)cc1
Second: COc1ccc(-c2cc(=O)c3c(O)cc(O[C@@H]4O[C@H](CO)[C@@H](O)[C@H](O)[C@H]4OC(C)=O)cc3o2)cc1
The IC50 of the first is higher: > 50 µM for the first, 4.7 µM for the second.

Going from `C=CCc1ccc(O[C@@H]2O[C@H](COC(=O)CC(=O)OC)[C@@H](O)[C@H](O)[C@H]2O)cc1` to `C=CCc1ccc(O[C@@H]2O[C@H](COC(C)=O)[C@@H](O)[C@H](O)[C@H]2O)cc1`, the IC50 rises from 14.3 µM to 48.8 µM (3.4-fold). The first is the more potent here.

`CC1=CC(=O)CC(C)(C)[C@H]1/C=C/[C@@H](C)O[C@@H]1O[C@H](CO)[C@@H](O)[C@H](O)[C@H]1O` and `C=CCc1ccc(O[C@@H]2O[C@H](CO)[C@@H](O)[C@H](O)[C@H]2O)cc1` are within 1.5-fold of each other in IC50: 16.8 µM for the first, 18.3 µM for the second.

First: O=C(/C=C/c1ccc(O)c(O)c1)O/C=C\c1ccc(O)c(O)c1 [NEPETOIDIN B]
Second: O=C(/C=C/c1ccc(O)c(O)c1)O[C@H](Cc1ccc(O)c(O)c1)C(=O)O [ROSMARINIC ACID]
The IC50 of the first is 9-fold lower: 3.8 µM for the first, 34.2 µM for the second.

`O=c1cc(-c2ccc(O)c(O)c2)oc2cc(O)cc(O)c12` [LUTEOLIN] and `COc1ccc(-c2cc(=O)c3c(O)cc(O)cc3o2)cc1O` [DIOSMETIN] are within 1.5-fold of each other in IC50: 8.1 µM for the first, 8.4 µM for the second.

First: CCOC(=O)/C=C/c1ccc(O)c(O)c1 [ETHYL CAFFEATE]
Second: O=c1cc(-c2ccc(O)cc2)oc2cc(O)cc(O)c12 [APIGENIN]
The IC50 of the first is 6.7-fold lower: 2 µM for the first, 13.4 µM for the second. The first is the more potent here.

Going from `O=C(CCc1ccc(O)cc1)c1c(O)cc(O)cc1O[C@@H]1O[C@H](CO)[C@@H](O)[C@H](O)[C@H]1O` [PHLORIZIN] to `COc1ccc([C@@H]2CC(=O)c3c(O)cc(O[C@@H]4O[C@H](CO)[C@@H](O)[C@H](O)[C@H]4O)cc3O2)cc1`, the IC50 rises from 14.6 µM to > 50 µM. The first is the more potent here.

First: COc1ccc(-c2cc(=O)c3c(O)cc(O[C@@H]4O[C@H](COC(=O)CC(=O)O)[C@@H](O)[C@H](O)[C@H]4OC(C)=O)cc3o2)cc1
Second: C=CCc1ccc(O[C@@H]2O[C@H](CO)[C@@H](O)[C@H](O)[C@H]2O)c(OC)c1 [CITRUSIN C]
The IC50 of the first is 17-fold higher: 28.8 µM for the first, 1.7 µM for the second. The second is the more potent here.
